Measurements reported in patent publication US9889146B2, “Benzoxaborole compounds and uses thereof” (priority 2012, dated 2018).
In brackets after ≈: the same amount, converted by molar mass. Where two headings read alike, the source gives them in different places.

Tests used:
Type in all cases: cell-based
[1] = tested on: Enterobacter aerogenes (AmpC); assay: microbe, parasite or virus in culture; conditions: Klebsiella aerogenes
[2] = tested on: Citrobacter freundii (AmpC); assay: microbe, parasite or virus in culture; conditions: Citrobacter freundii
Enterobacteriaceae = assay: organism not typed; conditions: Enterobacteriaceae, 2029 isolates; read-out: MIC90
Providencia spp.(all) = assay: microbe, parasite or virus in culture; conditions: Providencia spp.(all), 68 isolates; read-out: MIC90
Proteus mirabilis (WT) = assay: microbe, parasite or virus in culture; conditions: Proteus mirabilis (WT), 235 isolates; read-out: MIC90
Klebsiella spp. (ESBL) = assay: microbe, parasite or virus in culture; conditions: Klebsiella
[3] = tested on: Enterobacter cloacae (WT); assay: microbe, parasite or virus in culture; conditions: 202 isolates, read-out: MIC90
[4] = tested on: Enterobacter cloacae (AmpC); assay: microbe, parasite or virus in culture; conditions: Enterobacter cloacae
P. aeruginosa = assay: In vitro activity against P. aeruginosa clinical isolates; conditions: P. aeruginosa, 2,008 clinical isolates; GSK2251052 based on potential susceptible breakpoint of ≦4 μg/mL
Procedure: GSK2251052 was tested for activity against P. aeruginosa, and its activity was compared to other antibiotics of known activity. The results are shown below in Tables 2a and 2b. Of 2,008 clinical isolates tested (from 2009-2010 subjects, of which 40% were from North America) greater than 90% were susceptible to GSK2251052 based on a potential susceptible breakpoint of ≦4 μg/mL.

E. coli (WT) = assay: microbe, parasite or virus in culture; conditions: Escherichia coli; E. coli (WT), 214 isolates; read-out: MIC90
Klebsiella spp. (KPC) = assay: microbe, parasite or virus in culture; conditions: Klebsiella
Klebsiella spp. (WT) = assay: microbe, parasite or virus in culture; conditions: Klebsiella spp. (WT), 159 isolates; read-out: MIC90
[5] = tested on: Morganella morganii (AmpC); assay: microbe, parasite or virus in culture; conditions: Morganella morganii
Proteus vulgaris (WT) = assay: microbe, parasite or virus in culture; conditions: Proteus vulgaris (WT), 41 isolates; read-out: MIC90
K. pneumoniae ATCC 13883 = assay: Spontaneous frequency of resistance; conditions: 24 h
Procedure: (§1) Spontaneous Resistance Frequency was determined in vitro for GSK2251052 and the resistance mutants in E. coli ATCC 25922, K. pneumoniae ATCC 13883, and P. aeruginosa ATCC 27853 strains were characterized. GSK2251052 was prepared as described in U.S. Pat. No. 7,816,344 (the entire contents of which are hereby incorporated by reference herein). LB broth, Mueller Hinton II broth (adjusted), and Difco noble agar were obtained from Becton Dickinson (Cockeysville, Md., USA). M9 minimal broth containing 1×M9 salt, 0.5 μg/ML thiamine, 1 mM MgSO4, 0.1 mM CaCl2, 2% glucose, was obtained from Teknova (Hollister, Calif., USA). Antibacterial agents ciprofloxacin, ceftazidime, chloramphenicol, gentamycin, kanamycin, polymixin B, tobramycin and trimethoprim, and amino acids were obtained from Sigma Chemicals (St. Louis, Mo., USA). Strains were obtained from ATCC (Manassas, Va., USA).
(§2) Selection of resistance to GSK2251052 was attempted by spreading various amounts of bacteria onto MHBII noble agar plates containing 4×MIC (minimum inhibitory concentration) or 10×MIC of GSK2251052. Colonies were counted after 24 hours and 48 hours incubation at 37° C. The resistance of these colonies was confirmed by their ability to grow on plates containing GSK2251052 at either 4× or 10×MIC. Frequency of resistance was determined by dividing the number of resistant mutants by the total number of cells plated as determined by plating dilutions of the overnight culture on LB plates.

P. aeruginosa ATCC 27853 = assay: Spontaneous frequency of resistance; conditions: 24 h
Procedure: as §1, §2

E. coli ATCC 25922 = assay: Spontaneous frequency of resistance; conditions: 24 h
Procedure: as §1, §2

S. marcescens (AmpC) = assay: microbe, parasite or virus in culture; conditions: Serratia marcescens
[6] = tested on: Enterobacter aerogenes (WT); assay: microbe, parasite or virus in culture; conditions: Klebsiella aerogenes; Enterobacter aerogenes (WT), 199 isolates; read-out: MIC90
E. coli (ESBL) = assay: microbe, parasite or virus in culture; conditions: Escherichia coli
[7] = tested on: K. pneumoniae ATCC 13883 wild type and mutants; assay: MIC, wild type and GSK2251052 resistant mutants; conditions: Klebsiella pneumoniae
Procedure: as §1
(§3) Susceptibility tests were performed following the recommendations for aerobic bacteria (M7-A7) from the Clinical and Laboratories Standards Institute (CLSI).
(§4) Laboratory generated mutants resistant to GSK2251052 contain mutations in the editing domain of LeuRS. Six to ten GSK2251052 resistant colonies of E. coli ATCC 25922, K. pneumoniae ATCC 13883 and P. aeruginosa ATCC 27853 were selected for further analysis and their MICs to GSK2251052 were determined (Table 4-7).

[8] = tested on: E. coli ATCC 25922 wild type and mutants; assay: MIC, wild type and GSK2251052 resistant mutants; conditions: Escherichia coli
Procedure: as §1, §3, §4

[9] = tested on: P. aeruginosa ATCC 27853 wild type and mutants; assay: MIC, wild type and GSK2251052 resistant mutants; conditions: Pseudomonas aeruginosa
Procedure: as §1, §3, §4

[10] = tested on: E. coli ATCC 25922, K. pneumoniae ATCC 13883 and P. aeruginosa ATCC 27853; assay: MIC, three strains and their mutants summarised; conditions: MIC in E. coli, P. aeruginosa and K. pneumoniae mutants versus wild-type
Procedure: as §1, §3, §4
GSK2251052 resistant mutants were not cross-resistant to commercial antibiotics.

[11] = ATCC13883, K wt., read-out: MICs
[12] = ATCC13883, read-out: MICs, mutant K 104
[13] = ATCC13883, read-out: MICs, mutant K 105
[14] = ATCC13883, read-out: MICs, mutant K 107
[15] = ATCC13883, read-out: MICs, mutant K 108
[16] = ATCC13883, read-out: MICs, mutant K 110
[17] = ATCC25922, E wt, read-out: MICs
[18] = ATCC25922, read-out: MICs, mutant E 101
[19] = ATCC25922, read-out: MICs, mutant E 102
[20] = ATCC25922, read-out: MICs, mutant E 107
[21] = ATCC27853, P wt., read-out: MICs
[22] = ATCC27853, read-out: MICs, mutant P 101
[23] = ATCC27853, read-out: MICs, mutant P106
[24] = ATCC27853, read-out: MICs, mutant P108

SMILES | Frequency of Resistance (K. pneumoniae ATCC 13883; 4 X MIC) | Frequency of Resistance (K. pneumoniae ATCC 13883; 10 X MIC) | Frequency of Resistance (P. aeruginosa ATCC 27853; 4 X MIC) | Frequency of Resistance (P. aeruginosa ATCC 27853; 10 X MIC) | Frequency of Resistance (E. coli ATCC 25922; 4 X MIC) | MIC [7, 11] [µg/mL] | MIC [7, 12] [µg/mL] | MIC [7, 13] [µg/mL] | MIC [7, 14] [µg/mL] | MIC [7, 15] [µg/mL] | MIC [7, 16] [µg/mL] | MIC [8, 17] [µg/mL] | MIC [8, 18] [µg/mL] | MIC [8, 19] [µg/mL] | MIC [8, 20] [µg/mL] | MIC [9, 21] [µg/mL] | MIC [9, 22] [µg/mL] | MIC [9, 23] [µg/mL] | MIC [9, 24] [µg/mL] | cross-resistance of GSK2251052 resistant mutants [10] | further results
C[C@H]1COc2c(N3CCN(C)CC3)c(F)cc3c(=O)c(C(=O)O)cn1c23 [Levofloxacin] | 2 × 10^−7 | <3 × 10^−9 | 1 × 10^−7 | <1 × 10^−9 | 2 × 10^−8 | – | – | – | – | – | – | – | – | – | – | – | – | – | – | – | MIC90 [1]: 16 µg/mL (≈ 44.3 µM); MIC90 [2]: 8 µg/mL (≈ 22.1 µM); MIC90 (Enterobacteriaceae): 16 µg/mL (≈ 44.3 µM); MIC90 (Providencia spp.(all)): > 16 µg/mL; MIC90 (Proteus mirabilis (WT)): 8 µg/mL (≈ 22.1 µM); MIC90 (Klebsiella spp. (ESBL)): > 16 µg/mL; MIC90 [3]: ≤ 0.5 µg/mL; MIC90 [4]: 16 µg/mL (≈ 44.3 µM); % susceptible (P. aeruginosa): 63.7%; MIC90 (E. coli (WT)): 16 µg/mL (≈ 44.3 µM); MIC90 (Klebsiella spp. (KPC)): > 16 µg/mL; MIC90 (Klebsiella spp. (WT)): 4 µg/mL (≈ 11.1 µM); MIC90 [5]: > 16 µg/mL; MIC90 (Proteus vulgaris (WT)): ≤ 5 µg/mL; Frequency of Resistance (E. coli ATCC 25922; 10 X MIC): <5 × 10^−9; MIC90 (S. marcescens (AmpC)): 4 µg/mL (≈ 11.1 µM); MIC90 [6]: ≤ 0.5 µg/mL; MIC90 (E. coli (ESBL)): > 16 µg/mL
O=C(N[C@H](CO)[C@H](O)c1ccc([N+](=O)[O-])cc1)C(Cl)Cl [Chloramphenicol] | – | – | – | – | – | 4 (≈ 12.4 µM) | 8 (≈ 24.8 µM) | 8 (≈ 24.8 µM) | 8 (≈ 24.8 µM) | 8 (≈ 24.8 µM) | 8 (≈ 24.8 µM) | 8 (≈ 24.8 µM) | 8 (≈ 24.8 µM) | 8 (≈ 24.8 µM) | 8 (≈ 24.8 µM) | > 64 | > 64 | > 64 | > 64 | did not have any significant difference in MIC values than wild-type | –
NC[C@H]1O[C@H](O[C@H]2[C@H](O)[C@@H](O[C@H]3O[C@H](CO)[C@@H](O)[C@H](N)[C@H]3O)[C@H](N)C[C@@H]2N)[C@H](N)C[C@@H]1O [Tobramycin] | 1 × 10^−6 | 5 × 10^−8 | 1 × 10^−6 | 9 × 10^−8 | 1 × 10^−5 | 0.5 (≈ 1.07 µM) | 0.5 (≈ 1.07 µM) | 0.5 (≈ 1.07 µM) | 0.5 (≈ 1.07 µM) | 0.5 (≈ 1.07 µM) | 0.5 (≈ 1.07 µM) | 1 (≈ 2.14 µM) | 1 (≈ 2.14 µM) | 2 (≈ 4.28 µM) | 1 (≈ 2.14 µM) | 0.5 (≈ 1.07 µM) | 0.5 (≈ 1.07 µM) | 0.5 (≈ 1.07 µM) | 0.5 (≈ 1.07 µM) | did not have any significant difference in MIC values than wild-type | Frequency of Resistance (E. coli ATCC 25922; 10 X MIC): 4 × 10^−6
O=C(O)c1cn(C2CC2)c2cc(N3CCNCC3)c(F)cc2c1=O [Ciprofloxacin] | 5 × 10^−7 | <5 × 10^−9 | 1 × 10^−8 | <1 × 10^−9 | 2 × 10^−8 | 0.125 (≈ 0.377 µM) | 0.03 (≈ 0.0905 µM) | 0.06 (≈ 0.181 µM) | 0.06 (≈ 0.181 µM) | 0.03 (≈ 0.0905 µM) | 0.03 (≈ 0.0905 µM) | 0.008 (≈ 0.0241 µM) | 0.008 (≈ 0.0241 µM) | 0.008 (≈ 0.0241 µM) | 0.015 (≈ 0.0453 µM) | 0.5 (≈ 1.51 µM) | 1 (≈ 3.02 µM) | 1 (≈ 3.02 µM) | 0.5 (≈ 1.51 µM) | did not have any significant difference in MIC values than wild-type | Frequency of Resistance (E. coli ATCC 25922; 10 X MIC): <4 × 10^−9
COc1cc(Cc2cnc(N)nc2N)cc(OC)c1OC [Trimethoprim] | – | – | – | – | – | 1 (≈ 3.44 µM) | 1 (≈ 3.44 µM) | 1 (≈ 3.44 µM) | 1 (≈ 3.44 µM) | 1 (≈ 3.44 µM) | 1 (≈ 3.44 µM) | 0.5 (≈ 1.72 µM) | 1 (≈ 3.44 µM) | 0.5 (≈ 1.72 µM) | 1 (≈ 3.44 µM) | > 64 | > 64 | > 64 | > 64 | did not have any significant difference in MIC values than wild-type | –
